Patent US9492485B2, “Pluripotent stem cell-derived brown adipocytes, pluripotent stem cell-derived cell aggregate, method for producing same, and cell therapy and medical therapy therefor” (ID Pharma Co., Ltd., priority 2011, dated 2016)

Columns and labels:
[1] = tested on: undifferentiated human ES cells; experiment: Oxygen consumption (OCR) with XF96 Extracellular Flux Analyzer; assay type: cell-based; conditions: CL316,243 100 nM or isoproterenol 100 μM, 4 hours (FIG. 12A left)
[2] = tested on: white adipocytes produced from human mesenchymal stem cells (MSCs); experiment: as above; assay type: cell-based; conditions: CL316,243 100 nM or isoproterenol 100 μM, 4 hours (FIG. 12C)
[3] = tested on: undifferentiated human iPS cells; experiment: as above; assay type: cell-based; conditions: CL316,243 100 nM or isoproterenol 100 μM, 4 hours (FIG. 12B left)
[4] = tested on: brown adipocytes derived from human ES cells; experiment: as above; assay type: cell-based; conditions: CL316,243 100 nM or isoproterenol 100 μM, 4 hours (FIG. 12A right)
Protocol: (§1) Brown adipocytes were differentiated from KhES-3 and SeV-iPS cell lines in accordance with the method described in Example 5. Here, the adhesion culture in the step (B) for differentiation induction was carried out using a 96-well plate for exclusive use in XF96 Extracellular Flux Analyzer (Seahorse Bioscience Inc., Billerica, Mass.) after coating with 0.1% gelatin. The cell aggregates were seeded at an amount of 30 cell aggregates per well. The cell aggregates seeded in the 96-well plate were incubated in a 5% CO2 incubator at 37° C. for 2 days. Subsequently, isoproterenol (100 μM) or CL316,243 (100 nM) was added to a half of the wells, and incubation was further carried out in a 5% CO2 incubator at 37° C. for 4 hours, followed by measurement of oxygen consumption (OCR) per minute with XF96 Extracellular Flux Analyzer (Seahorse Bioscience Inc., Billerica, Mass.).

[5] = tested on: brown adipocytes derived from human iPS cells; experiment: as above; assay type: cell-based; conditions: CL316,243 100 nM or isoproterenol 100 μM, 4 hours (FIG. 12B right)
Protocol: as §1

[6] = tested on: 10-week old mice (male, ICR strain); experiment: Relief of 5-fluorouracil-induced myelosuppression in mice, bone marrow cell count; assay type: in vivo, mouse; conditions: 5-FU 100 mg/kg; isoproterenol 30 μmol/kg on 3 to 6 days after; vs saline; P=0.032 (FIG. 16F)
Protocol: Furthermore, whether or not a brown adipocyte stimulant has an effect of relieving a severe side effect of anticancer drug administration, myelosuppression, was investigated. Specifically, an anticancer drug, 5-fluorouracil (5-FU), was administered to 10-week old mice (male, ICR strain) at a dose of 100 mg/kg. Isoproterenol (30 μmol/kg) or saline was administered to the mice on 3 to 6 days after the administration, and bone marrow cells were collected from the thighbone over time and were counted.

[7] = tested on: brown adipocytes produced from KhES-3 cell line and SeV-iPS cell line; experiment: RT-PCR of PRDM16 and UCP1 gene expression after addition of adrenaline receptor agonist; assay type: cell-based, human; conditions: 100 μM, 4 hours, RT-PCR (FIG. 10)
Protocol: Brown adipocytes were produced from KhES-3 cell line and SeV-iPS cell line in accordance with the method described in Example 5 and were reacted with 100 μM of an adrenaline receptor agonist, isoproterenol, for 4 hours. In order to evaluate the activation of the brown adipocytes by the addition of the adrenaline receptor agonist, the expressions of the PRDM16 and UCP1 genes were investigated by RT-PCR.

[8] = tested on: human ES cell-derived brown adipocytes; experiment: Influence of brown adipocyte stimulant on hematopoietic cytokine expression levels; assay type: cell-based; conditions: treatment with isoproterenol (FIG. 16E)

SMILES | OCR value [1] | OCR value [2] | OCR value [3] | OCR value [4] | OCR value [5] | number of bone marrow cells on the 7th day from the 5-FU administration [6] | expression of the PRDM16 gene [7] | expression of the UCP1 gene [7] | expression levels of cytokines (TPO, IL6, IL3, G-CSF, GM-CSF, EPO) [8]
C[C@H](Cc1ccc2c(c1)OC(C(=O)[O-])(C(=O)[O-])O2)NC[C@H](O)c1cccc(Cl)c1.[Na+].[Na+] [CL316,243] | no change | no change | no change | significant increase | significant increase | – | – | – | –
CC(C)NCC(O)c1ccc(O)c(O)c1 (stereo not drawn) [isoproterenol] | – | – | – | – | – | significantly increased | increase | increase | increased
